Laboratory results as given in US6911209B1, “Method of treating sick sinus syndrome with levosimendan” (Orion Corporation, priority 1999, dated 2005).

System: heart rhythm of a patient
Test: Clinical data: oral levosimendan in a patient with wandering atrial pacemaker, first degree AV block, junctional rhythm
Format: in vivo, human
Description: The underlying heart rhythm of a patient on intravenous milrinone was wandering atrial pacemaker with a first degree AV block alternating with a junctional rhythm and sinus rhythm. The overall heart rate was around 70 bpm. Because of failure to wean the milrinone the patient was entered into oral levosimendan first at 1 mg followed by 2 mg and subsequently by 4 mg qd. […] Their levosimendan dose was reduced to 2 mg and maintained at that dose during the taper of intravenous milrinone. […] Milrinone was tapered off and the patient could be transferred out of the intensive care unit. The patient's dose of levosimendan was continued at 1 mg three times a day.

CC1CC(=O)NN=C1c1ccc(NN=C(C#N)C#N)cc1 (single isomer, unassigned; (-)) [levosimendan, (−)-[[4-(1,4,5,6-tetrahydro-4-methyl-6-oxo-3-pyridazinyl)phenyl]hydrazono]propanedinitrile]
cardiac rhythm (levosimendan 2 mg during taper of intravenous milrinone): regularize with a vast majority of the beats being sinus node in origin
overall heart rate (levosimendan dose reduced to 2 mg, maintained during taper of intravenous milrinone): 80-85 bpm
heart rate (oral levosimendan 1 mg, then 2 mg, then 4 mg qd, patient on intravenous milrinone, baseline around 70 bpm): over 90 bpm
